Drawing on patent EP2739618B1, “QUINAZOLINE COMPOUNDS AS SERINE/THREONINE KINASE INHIBITORS” (Array Biopharma, Inc., priority 2011, dated 2013), this text covers IC50 for 37 compounds.

The structures appear in SMILES notation.

Assay [1] concerns the target T1, human ERK-2 (Mitogen Activated Kinase 1) (Homo sapiens, UniProt P28482).
T1 construct: N-terminal 6-His fusion protein in E. coli and corresponding to aa 8-360; 6-His (N); made in house; host or cells: E. coli
The assay is described as follows: ERK-2 Enzymatic Assay. The following applies: 5nM ERK-2 enzyme, 25µM ATP, S/T17 peptide substrate, single assay or mean of multiple assays. In kind it is biochemical. As for the experimental part: Compounds were tested in an enzymatic assay using human ERK-2 (Mitogen Activated Kinase 1), recombinantly expressed as an N-terminal 6-His fusion protein in E. coli and corresponding to aa 8-360. The substrate used was the fluorescent Omnia peptide S/T17 (Invitrogen of Carlsbad, CA; Cat. KNZ1171C). Test compounds were diluted in DMSO in 3-fold serial dilutions at 100x final concentrations. […] The assay was run at ambient temperature in a white 384-well polypropylene plate (Nunc, Inc of Naperville, IL; Cat. 267462) collecting data every 50 seconds for approximately 30 minutes on an Envision plate reader (PerkinElmer, Inc. of Waltham, MA); Excitation 340 nm/Emission 495 nm. The data collected from each well was fit to a straight line and the resulting rates were used to calculate percent of control. Percent of control was plotted against compound concentration and IC50 values were determined using a four-parameter fit. Representative data is in TABLE I and TABLE II. The reported IC50 may be from a single assay or the mean of multiple assays.

Assay [2] deals with PMA-stimulated P90RSK(Ser380) phosphorylation. Kind of assay: Cellular P90RSK(Ser380) Phosphorylation Assay. The format is cell-based. The following applies: Homo sapiens; HepG2 cells, 1.5 h compound incubation, PMA 100ng/mL 30 min, normalized to GAPDH signal; single assay or mean of multiple assays. As for the experimental part:
Cellular P90RSK(Ser380) Phosphorylation Assay
Inhibition of PMA-stimulated P90RSK(Ser380) phosphorylation was determined by the following in vitro cellular mechanistic assay, which comprises incubating cells with a compound for 1.5 h and quantifying fluorescent pP90RSK(Ser380) signal on fixed cells and normalizing to GAPDH signal.
Materials and Methods: HepG2 cells were obtained from ATCC and grown in DMEM supplemented with 10% fetal bovine serum. Cells were plated in 96-well plates at 35,000 cells/well and allowed to attach overnight at 37 °C/5% CO2. Diluted compounds were then added at a final concentration of 0.5% DMSO. After 1.5 h compound incubation, cells were stimulated with the addition of PMA (phorbol 12-myristate 13-acetate) at a final concentration of 100ng/mL; the PMA stimulation was a 30-min incubation at 37 °C/5% CO2. After the 30-minute PMA stimulation, cells were washed with PBS and fixed in 3.7% formaldehyde in PBS at room temperature for 15-20 min. This was followed by another wash in PBS and then permeabilization in 100% MeOH at room temperature for 10-15 min. Following the permeabilization incubation, cells were washed in PBS/0.05% Tween-20, followed by a block in Odyssey blocking buffer (LI-COR Biosciences) for at least 1 hour. Antibodies to phosphorylated P90RSK(Ser380) (Cell Signaling #9335, rabbit monoclonal) and GAPDH (Fitzgerald 10R-G109a, mouse monoclonal) were added to the cells and incubated overnight at 4 °C. pP90RSK(Ser380) antibody was used at a 1:250 dilution; GAPDH was used at a 1:10,000 dilution. After washing with PBS/0.05% Tween-20, the cells were incubated with fluorescently-labeled secondary antibodies (Anti-rabbit-Alexa Flour680, Invitrogen Cat#A21109; Anti-mouse-IRDye800CW, Rockland Inc. Cat#610-131-121) for 1 h. Both secondary antibodies were used at a 1:1000 dilution. Cells were then washed and analyzed for fluorescence at both wavelengths using the Odyssey Infrared Imaging System (LI-COR Biosciences). Phosphorylated P90RSK(Ser380) signal was normalized to GAPDH signal. Representative data is in TABLE III (infra). The reported IC50 may be from a single assay or the mean of multiple assays.

For orientation: IC50 means the concentration at which inhibition is half-maximal. High values mean weaker potency in that assay, low ones greater potency in that assay.

T1 sequence (P28482 8-360): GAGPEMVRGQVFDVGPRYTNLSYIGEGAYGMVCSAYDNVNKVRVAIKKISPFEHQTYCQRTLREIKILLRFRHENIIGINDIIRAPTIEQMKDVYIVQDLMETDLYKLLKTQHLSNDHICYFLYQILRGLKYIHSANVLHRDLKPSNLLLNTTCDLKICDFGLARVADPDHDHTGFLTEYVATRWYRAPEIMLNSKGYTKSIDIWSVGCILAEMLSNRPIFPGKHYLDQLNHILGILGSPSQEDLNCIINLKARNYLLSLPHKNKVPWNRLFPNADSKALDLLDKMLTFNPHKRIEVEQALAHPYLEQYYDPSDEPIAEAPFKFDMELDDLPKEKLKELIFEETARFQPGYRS

`C[C@H](Nc1ncc2ccc(C(=O)N[C@@H](c3ccc(Cl)c(F)c3)[C@@H]3CCCN3)cc2n1)C(F)(F)F` [Compound I-40, 2-((S)-2,2,2-trifluoro-1-methyl-ethylamino)-quinazoline-7-carboxylic acid [(S)-(4-chloro-3-fluoro-phenyl)-(S)-pyrrolidin-2-yl-methyl]-amide]: the half-inhibitory concentration (IC50) in assay [1] (TABLE I) worked out at 0.0073 µM; in assay [2], 2.9 µM.
As to `Cn1cc([C@@H](NC(=O)c2ccc3cnc(NC4CCOCC4)nc3c2)c2ccc(OC(F)F)cc2)cn1` [Compound I-41, 2-(tetrahydropyran-4-ylamino)-quinazoline-7-carboxylic acid [(S)-(4-difluoromethoxy-phenyl)-(1-methyl-1H-pyrazol-4-yl)-methyl]-amide], the IC50 in assay [1] (TABLE I) turned out to be 0.00055 µM; in assay [2], 0.115 µM.
Taken in the same sequence, the figures for `Cn1cc([C@@H](NC(=O)c2ccc3cnc(N[C@@H]4CCO[C@H](CO)C4)nc3c2)c2ccc(Cl)c(F)c2)cn1` [Compound I-47, N-((S)-(4-chloro-3-fluorophenyl)(1-methyl-1H-pyrazol-4-yl)methyl)-2-((2S,4R)-2-(hydroxymethyl)tetrahydro-2H-pyran-4-ylamino)quinazoline-7-carboxamide] were 0.0014 µM and 0.029 µM.
Taken in the same sequence, the figures for `COc1ccc([C@H](NC(=O)c2cc(F)c3cnc(NCC4CC4)nc3c2)c2cnn(C)c2)cc1F` [Compound I-60, 2-(Cyclopropylmethyl-amino)-5-fluoro-quinazoline-7-carboxylic acid [(S)-(3-fluoro-4-methoxy-phenyl)-(1-methyl-1H-pyrazol-4-yl)-methyl]-amide] were 0.006 µM and 0.334 µM.
Taken in the same sequence, the figures for `COc1ccc([C@H](NC(=O)c2cc(F)c3cnc(N[C@@H]4CCOC4)nc3c2)c2cnn(C)c2)cc1F` [Compound I-61, 5-Fluoro-N-((S)-(3-fluoro-4-methoxyphenyl)(1-methyl-1H-pyrazol-4-yl)methyl)-2-((R)-tetrahydrofuran-3-ylamino)quinazoline-7-carboxamide] were 0.002 µM and 0.066 µM.
`COc1ccc([C@H](NC(=O)c2cc(F)c3cnc(NC4(C)COC4)nc3c2)c2cnn(C)c2)cc1F` [Compound I-64, 5-Fluoro-2-(3-methyl-oxetan-3-ylamino)-quinazoline-7-carboxylic acid [(S)-(3-fluoro-4-methoxy-phenyl)-(1-methyl-1H-pyrazol-4-yl)-methyl]-amide]: the IC50 in assay [1] (TABLE I) amounted to 0.006 µM; in assay [2], 0.978 µM.
Taken in the same sequence, the figures for `COc1ccc(C(NC(=O)c2ccc3cnc(NC4CCOCC4)nc3c2)c2cnn(CCO)c2)cc1F` (stereo not drawn) [Compound I-67, N-((3-fluoro-4-methoxyphenyl) (1-(2-hydroxyethyl)-1H-pyrazol-4-yl)methyl)-2-(tetrahydro-2H-pyran-4-ylamino) quinazoline-7-carboxamide] were 0.005 µM and 0.165 µM.
With `COc1ccc([C@H](NC(=O)c2ccc3cnc(NC4CSC4)nc3c2)c2cnn(C)c2)cc1F` [II-5], the IC50 amounted to 0.013 µM in assay [1] (TABLE II) and 0.0505 µM in assay [2].
As for `COc1ccc([C@H](NC(=O)c2cc(F)c3cnc(N[C@H]4CC[C@H](O)CC4)nc3c2)c2cnn(C)c2)cc1F` [II-13], half-maximal inhibition in assay [2] (IC50) required 0.0844 µM.
In the case of `COc1ccc([C@H](NC(=O)c2ccc3cnc(Nc4cc(C)nn4C)nc3c2)c2cnn(C)c2)cc1F` [II-18], the values for the IC50 in assay [1] (TABLE II) and in assay [2] were 0.0021 µM and 0.364 µM, respectively.
For `Cn1cc([C@@H](NC(=O)c2ccc3cnc(Nc4ccnn4C)nc3c2)c2ccc(Cl)c(F)c2)cn1` [II-25], the IC50 in assay [1] (TABLE II) came to 0.0031 µM; in assay [2], 0.0199 µM.
In turn, `COc1ccc([C@H](NC(=O)c2ccc3cnc(NC4CCOCC4)nc3c2)c2ccnn2C)cc1F` [II-28] showed a 50% inhibitory concentration (IC50) in assay [1] (TABLE II) of 0.003 µM.
`COc1ccc([C@H](NC(=O)c2cc(F)c3cnc(NC4CCOCC4)nc3c2)c2ccnn2C)cc1F` [II-29] registered a 50% inhibitory concentration (IC50) in assay [1] (TABLE II) of 0.0022 µM.
The compound `COc1ccc([C@H](NC(=O)c2ccc3cnc(N[C@H]4C[C@H]5C[C@@H]4CO5)nc3c2)c2cnn(C)c2)cc1F` [II-30] had an IC50 in assay [1] (TABLE II) of 1 µM.
The same measure, in the same setting: the same measure for `COCC(C)Nc1ncc2ccc(C(=O)N[C@@H](c3ccc(OC)c(F)c3)c3cnn(C)c3)cc2n1` (stereo partly drawn) [II-31]: 0.015 µM; for `COc1ccc([C@H](NC(=O)c2cc(F)c3cnc(N[C@H]4C[C@@H](F)C4)nc3c2)c2cnn(C)c2)cc1F` [II-33]: 0.0038 µM.
Same read-out and setting: the same measure for `COc1ccc(C(NC(=O)c2cc(F)c3cnc(NC4CC5CC4CO5)nc3c2)c2cnn(C)c2)cc1F` (stereo not drawn) [II-34]: 1 µM; for `COc1ccnc(C(NC(=O)c2cc(F)c3cnc(NC4CCOCC4)nc3c2)c2cnn(C)c2)c1` (stereo not drawn) [II-35]: 0.061 µM.
On the same count and under the same terms, the value for `COc1ccc([C@H](NC(=O)c2ccc3cnc(N[C@H]4CCOC[C@H]4F)nc3c2)c2ccnn2C)cc1F` [II-36] was 0.0038 µM; that for `COc1ccc([C@H](NC(=O)c2ccc3cnc(N[C@H]4CCOC[C@@H]4F)nc3c2)c2ccnn2C)cc1F` [II-37] was 0.0036 µM.
Take `COc1ccc([C@H](NC(=O)c2ccc3cnc(Nc4ccnn4C)nc3c2)c2ccnn2C)cc1F` [II-38]: the IC50 in assay [1] (TABLE II) turned out to be 0.0029 µM; in assay [2], 0.038 µM.
For `Cn1nccc1[C@@H](NC(=O)c1ccc2cnc(NC3CCOCC3)nc2c1)c1ccc(Cl)c(F)c1` [II-39], half-maximal inhibition in assay [1] (TABLE II) (IC50) required 0.151 µM.
On the same count and under the same terms, the value for `Cn1nccc1[C@@H](NC(=O)c1ccc2cnc(NC3CCOCC3)nc2c1)c1ccc(C#N)c(Cl)c1` [II-40] was 0.026 µM; that for `Cn1cc([C@@H](NC(=O)c2ccc3cnc(NC4CCOCC4)nc3c2)c2ccc(C(F)(F)F)c(F)c2)cn1` [II-41] was 0.0052 µM; that for `Cn1nccc1Nc1ncc2ccc(C(=O)NC(c3ccc(Cl)c(F)c3)C3(F)CCNC3)cc2n1` (stereo not drawn) [II-42] was 0.0346 µM.
Still for that read-out and setting: the value for `Cn1cc(C(NC(=O)c2ccc3cnc(NC4CCOCC4)nc3c2)c2ccc(OC(F)F)cc2)cn1` (stereo not drawn) [II-43] was 0.0121 µM.
Still for that read-out and setting: the same measure for `O=C(N[C@@H](c1ccc(OC(F)(F)F)c(F)c1)[C@H]1CCCNC1)c1ccc2cnc(NC3CCOCC3)nc2c1` [II-44]: 0.216 µM; for `O=C(N[C@@H](c1ccc(OC(F)(F)F)c(F)c1)C1CNCCO1)c1ccc2cnc(NC3CCOCC3)nc2c1` (stereo partly drawn) [II-45]: 0.0069 µM.
As to `COc1ccc([C@H](NC(=O)c2cc(F)c3cnc(NC4CCOCC4)nc3c2)c2cncn2C)cc1F` [II-46], in assay [1] (TABLE II), the IC50 came to 0.0011 µM.
Same read-out and setting: the same measure for `COc1ccc([C@H](NC(=O)c2cc(F)c3cnc(NC4CCOCC4)nc3c2)c2cnco2)cc1F` [II-47]: 0.0013 µM.
In the case of `COc1ccc([C@H](NC(=O)c2cc(F)c3cnc(NC4CCOCC4)nc3c2)c2cnnn2C)cc1F` [II-48], the IC50 in assay [1] (TABLE II) amounted to 0.0014 µM.
Take `COc1ccc([C@H](NC(=O)c2cc(F)c3cnc(NC4CCOCC4)nc3c2)c2cn(C)cn2)cc1F` [II-49]: the IC50 in assay [1] (TABLE II) came out at 0.0855 µM.
Regarding `COc1ccc([C@H](NC(=O)c2cc(F)c3cnc(NC4CCOCC4)nc3c2)c2ncc[nH]2)cc1F` [II-50], in assay [1] (TABLE II), the IC50 is 0.0591 µM.
Same read-out and setting: the same measure for `COc1ccc([C@H](NC(=O)c2cc(F)c3cnc(NC4CCOCC4)nc3c2)c2c[nH]c(C)n2)cc1F` [II-51]: 0.164 µM; for `COc1ccc([C@H](NC(=O)c2cc(F)c3cnc(NC4CCOCC4)nc3c2)c2nccn2C)cc1F` [II-52]: 0.0019 µM.
`COc1ccc([C@H](NC(=O)c2cc(F)c3cnc(Nc4ccnn4C)nc3c2)c2cncn2C)cc1F` [II-53] showed an IC50 in assay [1] (TABLE II) of 0.0015 µM.
On the same count and under the same terms, the value for `COc1ccc([C@H](NC(=O)c2cc(F)c3cnc(Nc4ccnn4C)nc3c2)c2nccn2C)cc1F` [II-54] was 0.0085 µM.
